Source: US20090274687A1, “ATTENUATION OF HYPOXIA INDUCED CARDIOVASCULAR DISORDERS” (University Of Miami, priority 2008, published 2009)
“Also recorded” adds a separate entry of the source.

Assays:
CXCR4 receptor = settings: cited from earlier work
[1] = test system: FVB/NJ neonatal mice exposed to normobaric hypoxia (hypoxia-induced pulmonary hypertension); assay: Prevention: neonatal mice exposed to 1 wk hypoxia, daily intraperitoneal treatment postnatal day 1-7; format: in vivo
Protocol: Animal Care and Treatment: Sixty Eight FVB/NJ neonatal mice exposed to normobaric hypoxia (10% O2) or normoxia (20.9% O2) for one week were randomly assigned to receive daily intraperitoneal injections of normal saline (PL; n=19), or AMD3100 (7.5 mg/kg; n=10) or anti-SDF-1 antibody ([…]; n=19) for seven days, from postnatal day 1-7.

## c1cc(CN2CCCNCCNCCCNCC2)ccc1CN1CCCNCCNCCCNCC1 [AMD3100, 1,1′-[1,4-phenylenebis(methylene)]bis-1,4,8,11-tetraazacyclotetradecane]
CXCR4 receptor; after introduction of Glu VII:06 and removal of Lys VII:02
  affinity relative to its affinity in CXCR4: ≤ 10 fold
CXCR4 receptor; introduction of a Glu at position VII:06 and removal of a neutralizing Lys residue at position VII:02
  increase in affinity of AMD3100: 1000 fold
[1]; 1 wk hypoxia, 20-50 μm diameter arterioles, vs Hyp PL, FIG. 5D
  vascular remodeling (medial wall thickness), morphometric analysis of pulmonary arterioles: marked decrease; also recorded: markedly attenuated
[1]; 1 wk hypoxia, right ventricle, vs Hyp PL, FIG. 4C
  RV c-kit expression: significantly decreased
[1]; 1 wk hypoxia, right ventricle, vs Hyp PL, FIG. 4D
  RV Sca-1 expression: significantly decreased
[1]; 1 wk hypoxia, right ventricle, vs Hyp PL, FIG. 4E
  RV Isl-1 expression: significantly decreased
[1]; 1 wk hypoxia, to baseline or near baseline values, FIGS. 4A-4E
  protein expression of stem cell markers (c-kit, Sca-1) in lungs and right ventricles: significantly decreased
[1]; 1 wk hypoxia, vs Hyp PL, to near baseline values, FIG. 4A
  lung c-kit expression: significantly decreased
[1]; 1 wk hypoxia, vs Hyp PL, to near baseline values, FIG. 4B
  lung Sca-1 expression: significantly decreased
[1]; 1 wk hypoxia, vs placebo, FIG. 5A
  RVSP: close to baseline values; also recorded: significantly attenuated
[1]; 1 wk hypoxia, vs placebo, FIG. 5B
  RV Hypertrophy (RV/LV+S): close to baseline values; also recorded: significantly attenuated
[1]; 1 wk hypoxia, vs placebo, FIG. 5C
  number of muscularized pulmonary arterioles (α-smooth muscle actin staining): decreased
[1]; 1 wk hypoxia, vs placebo, FIG. 5E
  percentage of non-muscularized pulmonary arterioles: significantly increased
[1]; 1 wk hypoxia, vs placebo, FIG. 5F
  mean linear intercept (MLI), lung alveolarization: significantly decreased
[1]; hypoxic mouse pups vs Hyp PL, FIGS. 6A-6B
  number of PCNA+ cells in the pulmonary vasculature (cell proliferation): significantly attenuated
[1]; hypoxic mouse pups vs Hyp PL, FIGS. 6D-6E
  number of TUNEL+ cells in the pulmonary vasculature (apoptosis): significantly attenuated
[1]; treated mouse pups vs placebo, FIG. 6C
  phosphorylated-Akt expression in lungs: marked decrease
